According to ChEMBL document CHEMBL4673243, “Discovery of 9-Cyclopropylethynyl-2-((S)-1-[1,4]dioxan-2-ylmethoxy)-6,7-dihydropyrimido[6,1-a]isoquinolin-4-one (GLPG1205), a Unique GPR84 Negative Allosteric Modulator Undergoing Evaluation in a Phase II Clinical Trial” (J Med Chem, 2020):
pIC50: −log10 of the molar value. In brackets after ≈: the same amount, converted by molar mass.

Key:
[1] = Half-life in male Sprague-Dawley rat at 0.5 mg/kg, iv administered as single bolus dose using PEG-200/NaCl formulation measured after 24 hrs by LC-MS/MS analysis; settings: in vivo
Mus musculus = organism: Mus musculus; experiment: Antiinflammatory activity in Balb/cj mouse model of DSS-induced colitis assessed as minimum effective dose; settings: read-out: MED
in vivo [2] = settings: male, Sprague-Dawley, rat, po
[3] = Plasma protein binding in dog at 5 uM measured after 4 hrs by LC-MS/MS analysis
[4] = biological target: Cytochrome P450 2C9 (Homo sapiens) (UniProt P11712)
Cytochrome P450 2C19 = Cytochrome P450 2C19 (Homo sapiens, UniProt P33261); experiment: Inhibition of CYP2C19 in human liver microsomes using probe substrate and in presence of co-factor preincubated for 20 mins followed by substrate addition by LC-MS/MS analysis
physchem = settings: aqueous solution with 2% DMSO, pH 7.4
[5] = Clearance in male Sprague-Dawley rat at 0.5 mg/kg, iv administered as single bolus dose using PEG-200/NaCl formulation measured after 24 hrs by LC-MS/MS analysis; settings: in vivo
Cytochrome P450 3A4 [6] = biological target: T1, Cytochrome P450 3A4 (Homo sapiens, UniProt P08684); experiment: Time-dependent inhibition of CYP3A4 in human liver microsomes using midazolam as substrate and in presence of co-factor by LC-MS/MS analysis
in vitro [7] = settings: human, cryopreserved hepatocytes
[8] = Thermodynamic solubility of compound at pH 3; settings: buffer
in vivo [9] = settings: male, Sprague-Dawley, rat, po; remark: listed apart in the source
in vitro [10] = settings: rat, cryopreserved hepatocytes
in vivo [11] = settings: Beagle, dog, iv, 0.5 mg/kg
[12] = Half life in Beagle dog at 0.5 mg/kg, iv administered as 10 mins infusion via catheter by LC-MS/MS analysis; settings: in vivo
[13] = Inhibition of embelin-induced migration of rat neutrophils preincubated for 30 mins followed by embelin addition and measured after 1 hr by celltiter-glo assay; settings: Neutrophil
[14] = Thermodynamic solubility of compound at pH 7.4; settings: buffer
Cytochrome P450 3A4 [15] = biological target: T1, Cytochrome P450 3A4; experiment: Inhibition of human CYP3A4 in human liver microsomes using testosterone as substrate and in presence of co-factor preincubated for 20 mins followed by substrate addition by LC-MS/MS analysis
Neutrophil = experiment: Inhibition of dog neutrophil cell migration; settings: Canis lupus familiaris
in vitro [16] = settings: human, cryopreserved hepatocytes; remark: listed apart in the source
in vivo [17] = settings: CD1, mouse, po, 5 mg/kg
in vitro [18] = settings: mouse, cryopreserved hepatocytes
in vivo [19] = settings: Beagle, dog, po
in vivo [20] = settings: Balb/c, mouse, plasma, po, 3 mg/kg
[21] = Half-life in plasma of Balb/c mouse model of DSS-induced colitis at 10 mg/kg, po administered using PEG-200/water formulation starting from day 1 to 11 measured by LC-MS analysis
[22] = Plasma protein binding in mouse at 5 uM measured after 4 hrs by LC-MS/MS analysis
in vivo [23] = settings: CD1, mouse, po, 5 mg/kg; remark: listed apart in the source
Description: Half-life in CD1 mouse at 5 mg/kg, po administered as single esophageal gavage dose post 12 hr fasting using PEG-200/water formulation measured after 24 hrs by LC-MS/MS analysis

in vivo [24] = settings: Balb/c, mouse, plasma, po, 10 mg/kg

T1 sequence (P08684 whole entry): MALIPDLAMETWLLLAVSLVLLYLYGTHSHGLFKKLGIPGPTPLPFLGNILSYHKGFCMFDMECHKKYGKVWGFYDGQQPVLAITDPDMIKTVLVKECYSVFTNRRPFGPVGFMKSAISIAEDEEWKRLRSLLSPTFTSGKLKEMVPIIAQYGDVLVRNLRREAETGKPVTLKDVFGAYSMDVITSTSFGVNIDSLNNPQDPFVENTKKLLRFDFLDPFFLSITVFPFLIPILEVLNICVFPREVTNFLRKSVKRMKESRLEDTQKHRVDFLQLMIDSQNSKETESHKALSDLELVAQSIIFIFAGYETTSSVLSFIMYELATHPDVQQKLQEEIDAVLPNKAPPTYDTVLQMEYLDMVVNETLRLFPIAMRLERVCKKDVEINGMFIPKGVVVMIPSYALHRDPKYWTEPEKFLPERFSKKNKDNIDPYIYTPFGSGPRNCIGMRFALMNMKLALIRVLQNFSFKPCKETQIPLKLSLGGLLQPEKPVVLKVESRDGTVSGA
Chain of Cytochrome P450 2C19 (P33261 whole entry): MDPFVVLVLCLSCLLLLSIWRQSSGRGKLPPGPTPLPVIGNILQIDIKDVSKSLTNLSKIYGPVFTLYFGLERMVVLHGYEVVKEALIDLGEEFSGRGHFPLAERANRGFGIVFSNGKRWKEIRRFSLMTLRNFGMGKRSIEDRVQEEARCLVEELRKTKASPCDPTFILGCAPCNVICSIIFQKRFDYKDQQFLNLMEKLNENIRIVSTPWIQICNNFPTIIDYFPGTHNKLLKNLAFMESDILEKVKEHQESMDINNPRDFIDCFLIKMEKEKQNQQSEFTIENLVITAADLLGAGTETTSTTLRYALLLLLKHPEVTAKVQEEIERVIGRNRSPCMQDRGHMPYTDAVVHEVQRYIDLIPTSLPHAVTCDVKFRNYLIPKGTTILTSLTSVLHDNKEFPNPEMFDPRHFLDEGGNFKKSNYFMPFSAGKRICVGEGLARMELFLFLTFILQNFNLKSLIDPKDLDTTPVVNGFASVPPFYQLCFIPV
Chain of Cytochrome P450 2C9 (Homo sapiens) (P11712 whole entry, looked up): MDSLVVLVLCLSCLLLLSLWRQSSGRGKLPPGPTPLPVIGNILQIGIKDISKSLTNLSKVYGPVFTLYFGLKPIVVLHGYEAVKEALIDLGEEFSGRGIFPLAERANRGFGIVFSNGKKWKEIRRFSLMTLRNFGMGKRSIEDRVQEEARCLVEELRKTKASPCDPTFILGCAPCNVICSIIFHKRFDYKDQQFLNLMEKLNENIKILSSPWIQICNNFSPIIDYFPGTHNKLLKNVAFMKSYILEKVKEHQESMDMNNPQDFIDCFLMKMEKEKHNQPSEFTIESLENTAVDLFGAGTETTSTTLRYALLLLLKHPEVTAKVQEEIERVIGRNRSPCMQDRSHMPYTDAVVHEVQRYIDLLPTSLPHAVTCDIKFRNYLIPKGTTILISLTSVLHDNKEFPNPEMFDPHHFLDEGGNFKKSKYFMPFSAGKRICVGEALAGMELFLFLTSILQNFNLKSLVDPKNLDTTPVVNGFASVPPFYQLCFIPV

- half-life at 24 h [1]: 1 h
- AUC(0-t) at 24 h (in vivo [2]): 4470 ng·h/mL
- fraction unbound at 4 h, 5 µM [3]: 0.065
- pIC50 [4]: 4.46
- pIC50 (Cytochrome P450 2C19): < 4.00
- solubility (physchem): 113 µg/mL (≈ 299 µM)
- clearance at 24 h [5]: 11.7 mL/min/kg
- pIC50 (Cytochrome P450 3A4 [6]): < 4.30
- CLint scaled at 1 µM (in vitro [7]): < 21.3 mL/min/kg
- solubility thermodynamic [8]: 12.6 µg/mL (≈ 33.3 µM)
- bioavailability at 24 h (in vivo [9]): > 100%
- half-life at 1 µM (in vitro [10]): > 3.33 h
- AUC(0-t) at […] (in vivo [11]): 410 ng·h/mL
- half-life at […] [12]: 1.4 h
- solubility thermodynamic [14]: 7.75 µg/mL (≈ 20.5 µM)
- pIC50 (Cytochrome P450 3A4 [15]): < 4.30
- pIC50 (Neutrophil): 7.12
- half-life at 1 µM (in vitro [16]): > 3.33 h
- Tmax at 24 h (in vivo [17]): 0.5 h
- half-life at 1 µM (in vitro [18]): > 3.33 h
- Cmax (in vivo [19]): 558 ng/mL
- AUC(0-t) at 24 h (in vivo [20]): 5560 ng·h/mL
- half-life [21]: 2.3 h
- fraction unbound at 4 h, 5 µM [22]: 0.022
- half-life at 24 h (in vivo [23]): 1.9 h
- Tmax (in vivo [24]): 1 h
Compound: O=c1nc(OC[C@@H]2COCCO2)cc2n1CCc1cc(C#CC3CC3)ccc1-2 [GLPG-1205]
- minimal effective dose (Mus musculus): 3 mg/kg
- pIC50 [13]: 6.95
